Molecules are shown by their SMILES.

Drawing on PubChem BioAssay AID2305 (GlaxoSmithKline (GSK), 2010), this text covers IC50 for 89 molecules.

This experiment relates to P. falciparum 3D7 growth, pLDH absorbance. The experiment in a line: P. falciparum 3D7 growth inhibition, dose response, strain 3D7 (AID 2305).

In general, IC50 refers to the concentration needed to halve the response being measured. A high value points to weaker potency. Molecule `CN(C)CCOc1ccc(-c2cc(-c3ccc(Cl)c(O)c3)c(-c3ccncc3)o2)cc1` came in with an IC50 of 1450 nM. For the molecule `COc1cccc(C=CC(=O)N(CCN)Cc2ccccc2)c1`, the half-inhibitory concentration (IC50) was determined as 820 nM. Compared with the last molecule, the IC50 is about 1.8-fold lower.

As for `CCn1cnc2c(N3CCCCS3(=O)=O)cc(C(=O)N[C@@H](Cc3ccccc3)[C@H](O)CNC3CCOCC3)cc21`, the 50% inhibitory concentration (IC50) came to 710 nM. `COc1ccc(NC(=O)/C=C/c2ccc(Cl)c(C(F)(F)F)c2)cc1OCCN(C(C)C)C(C)C` gave a half-maximal inhibitory concentration (IC50) of 630 nM. This IC50 and that of the molecule before are within 1.5-fold of each other. In the case of `Cc1csc(-c2nonc2NC(=O)COc2ccccc2C(C)C)n1` it was 550 nM; in that of `CSc1cccc(NC(=O)Nc2ccc(I)c(OCCN(C)C)c2)c1`, 690 nM. `O=C(C=Cc1cc([N+](=O)[O-])ccc1Cl)NC1CCC(CN2CCC(c3c[nH]c4ccccc34)CC2)CC1` (centres undefined): the concentration for half-maximal inhibition (IC50) is 740 nM.

With `Cc1cc2c(cc1C(F)(F)F)N(C(=O)Nc1cc(C(=O)NC3CCN(Cc4ccccc4)C3)cc(C(F)(F)F)c1)CC2` (centres undefined), the IC50 stood at 340 nM. As to `Cc1cc(NCCC(=O)NCCOc2ccccc2)nc(NCCOc2ccccc2)n1`, the half-maximal inhibitory concentration (IC50) worked out at 870 nM.

The molecule `Cc1cccc2[nH]c(-c3ccc(-c4cccc(NC(=O)c5cncn5C)c4)cc3)nc12` returned an IC50 of 860 nM. This IC50 and that of the molecule before are within 1.5-fold of each other. Take `CC(=O)Nc1nc(C(=O)Nc2ccc(-c3ccc(-c4nc5ccccc5[nH]4)cc3)cc2)cs1`: the IC50 is 150 nM.

Consider `Cc1[nH]c2ccccc2c1CC1CCN(CC2CCN(C(=O)/C=C/c3ccc(Cl)c(Cl)c3)CC2)CC1`, for which the half-inhibitory concentration (IC50) is 950 nM. Compared with the last molecule, the IC50 is about 6.3-fold higher. For the molecule `COc1ccc(CCN(C)CCCN2CCC(NC(=O)c3cccc4c(=O)c5ccccc5sc34)CC2)cc1OC`, the half-maximal inhibitory concentration (IC50) turned out to be 790 nM. As for `Cc1ccc(NC(C)C(=O)Nc2ccc(C#N)cc2)cc1S(=O)(=O)N1CCCCC1` (centres undefined), the figure is 540 nM. For the molecule `COc1ccc(-c2nc3cccnc3n2CC(=O)Nc2c(C)cc(C)cc2C)c(OC)c1`, the IC50 is 930 nM. This IC50 is about 1.7-fold higher than that of the molecule before. `Cc1c(Cc2ccc(F)cc2)c(Cl)nc2nc(N)nc(N)c12` returned a concentration for half-maximal inhibition (IC50) of 860 nM. The IC50 values of the last two molecules are within 1.5-fold of each other. Turning to `CCC(C)c1ccc(O)c(NC(=O)c2cncc(Br)c2)c1` (centres undefined), the IC50 is 800 nM. The IC50 values of the last two molecules are within 1.5-fold of each other. On to `O=C(Nc1ccccc1O)C1CCN(c2ncnc3cc(-c4ccc(F)cc4)sc23)CC1`, for which the IC50 is 870 nM.

With `COc1ccc(NC(=O)Nc2ccc(C)c(-c3ccc(C(=O)Nc4ccncc4)cc3)c2)cc1`, the IC50 is 570 nM. `O=C(/C=C/c1ccccc1O)N1CCC(CCN2CCC(c3c[nH]c4ccccc34)CC2)CC1` yielded an IC50 of 1340 nM.

The molecule `COc1ccc(CN2CCCC(C(=O)c3ccc(C(F)(F)F)cc3)C2)c(O)c1` (centres undefined) came in with a 50% inhibitory concentration (IC50) of 850 nM. The molecule `CC(C)N1CCN(C(CN2CCN(CCCOc3ccc(-c4ccccc4)cc3)CC2)c2ccc(F)cc2)CC1` (centres undefined) showed an IC50 of 680 nM. For `CC(C)CCN1CCCN(Cc2ccc(C(=O)NCc3ccc(Cl)cc3)cc2)CC1`, the half-maximal inhibitory concentration (IC50) was 1010 nM.

`COc1ccc2nc(-c3ccc(C(=O)NCCCN4CCN(c5cc(Cl)ccc5OC)CC4)cc3)[nH]c2c1` displayed an IC50 of 770 nM. As for `CN(C)CCNC(=O)N1CCCN(c2ncnc3cc(-c4ccccc4)sc23)CC1`, the IC50 is 790 nM.

`Cc1cc(N[C@@H](Cc2ccccc2)C(=O)NCCc2ccccc2)nc(NCCc2cccs2)n1` showed an IC50 of 710 nM. On to `COc1ccccc1C1CCN(C2CCC(NC(=O)/C=C/c3cc(C(F)(F)F)ccc3F)CC2)CC1` (centres undefined), for which the half-maximal inhibitory concentration (IC50) came out at 870 nM. Take `CCN(CC)CC(O)Cc1c2ccc([N+](=O)[O-])cc2nc2cc(OC)c(OC)cc12` (centres undefined): the IC50 amounted to 740 nM. As for `N#Cc1ccc(N(CCNS(=O)(=O)c2cc(Br)c(Cl)s2)Cc2ccccc2C(F)(F)F)cc1C(F)(F)F`, the figure is 860 nM. The molecule `O=C(CCNc1ccnc(NCCc2ccccc2)n1)Nc1ccccc1` displayed an IC50 of 840 nM. The IC50 values of the last two molecules are within 1.5-fold of each other. With `Cc1ccc(S(C)(=O)=O)cc1/C=C/C(=O)O`, the IC50 turned out to be 870 nM. Consider `Cc1cccc2[nH]c(-c3cccc(-c4ccc(NC(=O)Nc5ccc(Cl)c(Cl)c5)cc4)c3)nc12`, for which the IC50 worked out at 570 nM. Molecule `CCC(C)Oc1ccc2nc(N)nc(N)c2c1Cl` (centres undefined) had a half-maximal inhibitory concentration (IC50) of 180 nM.

With `COc1ccc(CCNCC(O)c2cccc(Br)c2)c(Cl)c1OC` (centres undefined), the IC50 is 1040 nM. This IC50 is about 5.8-fold higher than that of the molecule before.

For the molecule `Cn1nc(C(F)(F)F)cc1-c1ccc(C(=O)Nc2ccc3c(c2)CNCC3(C)C)s1`, the IC50 came out at 1010 nM. In turn, `O=C(/C=C/c1ccc(Cl)c(Cl)c1)NCCCCCN1CCC(CCNC(=O)Cc2ccc(Cl)cc2)CC1` gave an IC50 of 1160 nM.

The molecule `Cc1ccc(Cc2c(C)nc3nc(N)nc(N)c3c2C)cc1` registered an IC50 of 240 nM. This IC50 is about 4.8-fold lower than that of the molecule before.

Consider `CNc1ccc(CNCc2cccc(-c3ccc(-c4nc5c(C)cccc5[nH]4)s3)c2)cc1`, for which the half-inhibitory concentration (IC50) was 990 nM. Against the preceding molecule, the IC50 is about 4.1-fold higher.

The molecule `CO/C(=C\C=C\c1cc2cc(Cl)c(Cl)cc2[nH]1)C(=O)Nc1ccc(NCCN(C)C)nc1` gave an IC50 of 770 nM. `CCn1nc(C(=O)NC2CCOc3ccccc32)c2ccccc2c1=O` (centres undefined) yielded an IC50 of 1230 nM. Against the preceding molecule, the IC50 is about 1.6-fold higher. In the case of `Cc1cccc(N2C(N)=NC(N)=NC2(C)C)c1C` it was 760 nM; in that of `Oc1ccc(CCNc2nc(NCCCOc3cccc(CN4CCCCC4)c3Cl)nc(N3CCNCC3)n2)cc1`, 1370 nM. `Cn1nc(C(=O)N2CCC(c3[nH]ncc3Cc3ccccc3)CC2)c2ccccc2c1=O` returned an IC50 of 300 nM. `O=S(=O)(NCCN1CCCC1)c1ccc(-c2ccc(CNCc3ccsc3)cc2)s1` yielded an IC50 of 830 nM.

`Cc1cc(N2CCN(C(=O)OC(C)(C)C)CC2)ccc1N`: the IC50 was 870 nM. Regarding `COc1ccc(C(=O)Nc2nonc2-c2ccc(OC)c(OC)c2)cc1Cl`, the IC50 is 670 nM. Turning to `CCOc1cc(C(=O)NC2CCN(Cc3ccccc3)CC2)ccc1-c1nc2ccc(Cl)cc2[nH]1`, the IC50 amounted to 430 nM. Consider `CN(C)CCN(C)Cc1ccc(-c2cccc(-c3nc4ccccc4[nH]3)c2)cc1`, for which the IC50 is 750 nM.

With `CCc1ccc(NC(=O)c2ccc(CN3CCCN(Cc4cccc(Cl)c4)CC3)cc2)cc1`, the IC50 was 1110 nM. This IC50 and that of the molecule before are within 1.5-fold of each other. Take `COc1cc(C)c(C(O)CNC(C)CCc2ccccc2)cc1C` (centres undefined): the IC50 is 730 nM. As to `NC(=NCCc1ccc(Cl)c(Cl)c1)c1ccc2ccccc2c1`, the concentration for half-maximal inhibition (IC50) was found to be 510 nM.

`COc1ccc(CCNCCCCCCNCCc2ccc(OC)c(OC)c2Cl)c(Cl)c1OC`: the IC50 was 900 nM.

`COc1ccc(C(=O)C2CCN(CCCCNC(=O)c3ccc(NC(=O)c4ccc(Cl)cc4)cc3)CC2)c(OC)c1`: the IC50 stood at 770 nM. In the case of `COc1cc(Cc2cnc(N)nc2N)ccc1OCc1ccc(-c2ccccc2C#N)cc1` it was 940 nM; in that of `COc1ccc(CNC2Cc3ccccc3C2)cc1-c1ccc(S(=O)(=O)NCCN2CCCC2)cc1`, 580 nM; in that of `Nc1ncc(-c2ccc(F)cc2)cc1-c1nc2ccc(Cl)cc2[nH]1`, 750 nM.

For the molecule `OCCc1ccc(Nc2nccc(-c3nnc4ccccn34)n2)cc1`, the 50% inhibitory concentration (IC50) worked out at 900 nM. This IC50 and that of the molecule before are within 1.5-fold of each other.

The molecule `CCCCCc1cc(O)c2c(c1)OC(C)(C)CC2C1=CCN(Cc2cnc3ccccc3c2)CC1` (centres undefined) displayed an IC50 of 280 nM.

Take `CCCCc1ccc(-c2c(N)nc(N)nc2CC)cc1`: the IC50 came to 950 nM. As to `c1ccc(COc2ccc(Cn3ccc(-c4ccc(-n5ccnc5)cc4)n3)cc2)cc1` (tested in a mixture with another compound), the 50% inhibitory concentration (IC50) worked out at 1020 nM. In turn, `COC(=O)Nc1nc2cc3c(cc2s1)OCCO3` showed an IC50 of 840 nM. On to `Cc1cc(Br)cnc1CCCCNc1cc(=O)c2ccccc2[nH]1`, for which the half-inhibitory concentration (IC50) stood at 1160 nM. In the case of `CN(/N=C/c1ccc(Cl)cc1)c1nc(NCCc2ccc(O)cc2)nc(N2CCNCC2)n1` it was 1350 nM; in that of `CC(C)c1ccc(NC(=O)c2ccc(CN3CCCN(CC4CCCCC4)CC3)cc2)cc1`, 620 nM. `O=S(=O)(NC1CCN(c2ccnc3cc(Cl)ccc23)C1)c1cccc(F)c1` (centres undefined): the 50% inhibitory concentration (IC50) stood at 490 nM. In the case of `OCCN1CCN(c2ccc(Nc3ccnc4cc5ccccc5cc34)cc2)CC1` it was 40 nM; in that of `CN(C)CCOc1cc(NC(=O)Nc2ccc(-c3ccncc3)c(Cl)c2)ccc1I`, 140 nM. Molecule `O=C(NC1CCC(CN2CCC(c3c[nH]c4ccccc34)CC2)CC1)c1cc(-c2ccccc2Cl)oc1C(F)(F)F` (centres undefined) had a half-inhibitory concentration (IC50) of 770 nM. In turn, `COc1ccc2nccc([C@@H](O)CN3CC[C@H](NCc4cnc5c(c4)NC(=O)CS5)[C@H](F)C3)c2c1` gave a concentration for half-maximal inhibition (IC50) of 770 nM. `NC(=O)CCC(NC(=O)CNC(=O)Nc1cccc(C(F)(F)F)c1)C(=O)O` (centres undefined) came in with a half-inhibitory concentration (IC50) of 800 nM. This IC50 and that of the molecule before are within 1.5-fold of each other.

For `COc1ccc(Cl)cc1C(=O)Nc1ccc(-c2nc3ccccc3[nH]2)cc1`, the half-inhibitory concentration (IC50) is 770 nM. This IC50 and that of the molecule before are within 1.5-fold of each other. Consider `CC(NCC(O)Cn1c2ccccc2c2ccccc21)c1ccccc1` (centres undefined), for which the IC50 was determined as 930 nM. For `CCCCC(O)c1cc(O)c2c(c1)OC(C)(C)CC2C1=CCN(Cc2ccc3ccccc3c2)CC1` (centres undefined), the IC50 worked out at 970 nM. This IC50 and that of the molecule before are within 1.5-fold of each other. For `O=C(/C=C/c1ccccc1)N1CCOC(CCN2CCC(c3ccccc3)CC2)(c2ccc(Cl)c(Cl)c2)C1` (centres undefined), the 50% inhibitory concentration (IC50) was found to be 520 nM. As for `COc1ccc(O)c(C(=O)c2cnc3c(c2)c(-c2ccc(F)cc2)c(C#N)c(=O)n3C)c1`, the figure is 790 nM. In the case of `COc1ccc(Cc2c(N)nc3nc(N)nc(N)c3c2C)cc1` it was 190 nM; in that of `CC(C)(C)c1ccc(N2C(N)=NC(N)=NC2(C)C)cc1`, 30 nM; in that of `CN(C)CCOc1ccnc2ccc(NC(=O)Cc3ccc(-c4ccncc4)c4ccccc34)cc12`, 280 nM.

With `CCOc1ccccc1CNc1nccc(NCc2ccccc2OC)n1`, the IC50 came to 1490 nM.

`Cc1c(C)c2c(c(C)c1O)CC[C@@](C)(C(=O)N1CCC(CCN3CCC(c4c[nH]c5ccccc45)CC3)CC1)O2` came in with a concentration for half-maximal inhibition (IC50) of 670 nM. As for `COc1ccccc1CCNC(=O)c1cnc(N2CCN(c3ccncc3)CC2)c(Cl)c1`, the figure is 1150 nM. The molecule `Cc1ccc2[nH]c3c(c2c1)CC(C(=O)NCCC(C)C)NC31CCN(Cc2ccccc2)CC1` (centres undefined) registered an IC50 of 930 nM.

`CC[C@H](C)CNC(=O)c1cccc(-c2cccc(CN3CCC(N4CCCC4)CC3)c2)n1`: the IC50 turned out to be 710 nM.

Molecule `COc1cc([N+](=O)[O-])ccc1NC(=O)Nc1ccc(OC(F)(F)F)cc1` gave a 50% inhibitory concentration (IC50) of 1030 nM. In turn, `CC(=O)Oc1cc(C)ccc1C1CCN(CCCCNC(=O)c2ccc(NC(=O)c3ccc(Cl)cc3)cc2)CC1` came in with an IC50 of 720 nM. For the molecule `Nc1nc2c(ncn2OC[C@H](CO)OCP(=O)(O)O)c(=O)[nH]1`, the IC50 was found to be 340 nM.

For `CN(C)CCC(O)(c1ccc(Br)cc1)c1cccnc1` (centres undefined), the 50% inhibitory concentration (IC50) is 830 nM.

`NC(=O)c1ccccc1Nc1nc(Nc2ccn[nH]2)ncc1Cl` yielded an IC50 of 960 nM. `Cc1cccn2c(=O)c3cc(C(=O)NCCc4ccccc4)c(=N)n(CCCOC(C)C)c3nc12`: the IC50 came out at 480 nM.
